This is an account of results in publication PMC2978510 (Bioorganic & medicinal chemistry, 2010).

A value given as a limit tells only on which side of the number the result lay.

For test [1], the target named is T1, CB2 receptor (Homo sapiens, UniProt P34972). Nature of the test: GTPγS binding in CHO cells stably expressing the human CB2 receptor. It is filed as biochemical. Conditions: for Efficacy at the CB2 receptor: GTPγS binding, relative to CP-55,940.
The conditions of test [2]: mouse; ref [28]; cited from earlier work.
The subject of test [3] is CB2 receptor. Conditions: cited from earlier work; for Ki: read-out: Affinity for the CB2 receptor, Merck Frosst group, ref [29].
In test [4] the test system is CB1 receptor. Conditions: Merck Frosst group; ref [29]; cited from earlier work.
The target of test [5] is CB1 receptor (Rattus norvegicus, UniProt P20272). To be noted: read-out: Ki (nM) CB1; mean ± SEM; ref [31]; cited from earlier work.
Sequence of CB1 receptor (Rattus norvegicus, UniProt P20272) (P20272 whole entry): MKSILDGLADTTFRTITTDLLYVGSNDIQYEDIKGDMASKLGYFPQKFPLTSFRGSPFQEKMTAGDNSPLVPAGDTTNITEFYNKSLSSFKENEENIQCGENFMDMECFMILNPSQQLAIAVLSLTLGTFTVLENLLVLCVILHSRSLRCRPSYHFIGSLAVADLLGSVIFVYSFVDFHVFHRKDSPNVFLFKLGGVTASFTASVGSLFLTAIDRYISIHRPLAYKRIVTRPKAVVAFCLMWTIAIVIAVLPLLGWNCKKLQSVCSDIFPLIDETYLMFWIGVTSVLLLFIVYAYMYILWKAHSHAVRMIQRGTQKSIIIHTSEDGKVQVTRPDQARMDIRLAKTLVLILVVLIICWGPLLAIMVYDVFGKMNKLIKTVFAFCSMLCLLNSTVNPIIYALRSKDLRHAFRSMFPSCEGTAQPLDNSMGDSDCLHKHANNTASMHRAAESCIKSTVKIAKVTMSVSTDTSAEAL
Test [6] addresses T1, CB2 receptor. To be noted: ref [31], cited from earlier work.

T1 sequence (P34972 whole entry): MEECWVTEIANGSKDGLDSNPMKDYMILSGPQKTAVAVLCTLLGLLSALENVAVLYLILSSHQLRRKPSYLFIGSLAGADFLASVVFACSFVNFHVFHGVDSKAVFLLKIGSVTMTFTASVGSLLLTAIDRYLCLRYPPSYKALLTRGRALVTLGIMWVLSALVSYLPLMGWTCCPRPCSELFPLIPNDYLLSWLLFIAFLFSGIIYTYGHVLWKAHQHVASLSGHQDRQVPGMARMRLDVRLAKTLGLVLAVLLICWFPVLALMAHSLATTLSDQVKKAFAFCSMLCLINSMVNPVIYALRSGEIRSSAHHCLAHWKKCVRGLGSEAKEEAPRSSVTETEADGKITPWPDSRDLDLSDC

Take `CCCCCC(C)(C)c1cc(Br)c2c(c1)OC(C)(C)[C@@H]1CC=C(C)C[C@@H]21` [JWH-393, 1-Bromo-1-deoxy-3-(1′,1′-dimethylhexyl)-Δ^8-tetrahydrocannabinol]: the “Efficacy at the CB2 receptor” value on CB2 receptor [1] was “full agonists”. Further, the Emax at CB2 receptor [1] (read-out: Emax (% CP-55940), percent relative to 3 μM CP-55,940, mean ± SEM) was 98.3 ± 6.8%.

With `CCCCCCC(C)(C)c1ccc2c(c1)OC(C)(C)[C@@H]1CC=C(CO)C[C@@H]21` [Compound 2, 11-hydroxy-3-(1′,1′-dimethylheptyl)-1-deoxy-Δ^8-THC], the Potency in vivo result in test [2] was “potent cannabinoid in vivo in the mouse”.

For the molecule `CCCCCCC(C)(C)c1ccc2c(c1)OC(C)(C)[C@@H]1CC=C(C)C[C@@H]21` [Compound 3, 3-(1′,1′-dimethylheptyl)-1-deoxy-Δ^8-THC], the “Selectivity for the CB2 receptor” value with CB2 receptor [3] (ref [28]) is reported as “nearly ten-fold selectivity”. In test [2], the Potency in vivo result is listed as “potent in vivo”.

For the molecule `C=C1CCC2C(C1)c1c(OC)cc(C(C)(C)CCCCCC)cc1OC2(C)C` (stereo not shown) [Compound 5, 1-methoxy-Δ^9(11)-THC-DMH], the “Affinity for the CB1 receptor” value with CB1 receptor [4] is on record as “negligible affinity”. Moreover, the Ki at CB2 receptor [3] was about 20 nM.

As to `CCCC(C)(C)c1cc(OC)c2c(c1)OC(C)(C)[C@@H]1CC=C(C)C[C@@H]21` [JWH-214], the Ki at CB1 receptor [5] was over 10000 nM; at CB2 receptor [6] (read-out: Ki (nM) CB2, mean ± SEM), 325 ± 70 nM.

Consider `CCCCCCC(C)(C)c1cc(Br)c2c(c1)OC(C)(C)[C@@H]1CC=C(C)C[C@@H]21` [JWH-383, 1-Bromo-1-deoxy-3-(1′,1′-dimethylheptyl)-Δ^8-tetrahydrocannabinol], for which the “Efficacy at the CB2 receptor” value at CB2 receptor [1] is recorded as “full agonists”.

As to `CCCCCCC(C)(C)c1cc(OC)c2c(c1)OC(C)(C)C1CC=C(C)CC21` (stereo not shown) [JWH-143], the “Selectivity for the CB2 receptor” value at CB2 receptor [6] (1-methoxy series) was 12 fold.

On to `CCCCCCC(C)(C)c1cc(OC)c2c(c1)OC(C)(C)C1CC=C(C)CC21` (stereo not shown) [Compound 4, 1-methoxy-Δ^8-THC-DMH], for which the “Affinity for the CB1 receptor” value with CB1 receptor [4] is on record as “negligible affinity”. For the same molecule, the Ki on CB2 receptor [3] was about 20 nM.
